Columns and labels:
[1] = tested on: mice with a complete T8 spinal cord transection; experiment: BMS open field locomotion after complete T8 spinal cord transection; type: in vivo, mouse; conditions: complete T8 transection; same treatment as in staggered lesion; FIG. 7E
Description: CLP290's effects could result from reactivating the spared dormant descending connections in the spinal cord after SCI. However, it could also act directly on the lumbar spinal cord, independently of descending inputs. […] Therefore, different from this transient effector that acts directly on the lumbar spinal cord, the effects of CLP290 on functional improvement are dependent on spared connections.
The procedure of T8 full transection was similar to that described elsewhere (Courtine et al., 2009). Briefly, a midline incision was made over the thoracic vertebrae, followed by a T8 laminectomy. The complete T8 transection was then performed carefully using both a scalpel and micro-scissors. The muscle layers were then sutured and the skin was secured with wound clips.
(§1) Behavioral Experiments. Motor function was evaluated with a locomotor open field rating scale on the Basso Mouse Scale (BMS). For transient pharmacological treatments, ten to fifteen minutes (van den Brand et al., 2012) prior to behavioral tests (grounding walking, all of which were performed individually), mice received systematic administration (i.p.) of the neural modulators listed above. It is important to note that with a single intraperitoneal injection, plasma CNO levels peak at 15 min and become very low by 2 h after injection (Guettier et al., 2009). For chronic pharmacological treatments, 24 hours prior to behavioral tests, mice received systematic administration of the compounds listed above. All behavioral tests were completed within 1-3 hours. For detailed hindlimb kinematic analysis, mice from different groups were placed in the MotoRater (TSE Systems, (Zorner et al., 2010)), and all kinematic analysis was performed based on data collected by the MotoRater.

[2] = Side effects of compounds tested in the study; type: in vivo, mouse; conditions: even at high doses; data not shown
[3] = tested on: mice with staggered lesions; experiment: Basso Mouse Scale (BMS) open field locomotion after staggered T7/T10 lateral hemisections; type: in vivo
Procedure: A staggered lesion paradigm was optimized in which two lateral hemisections were performed at the thoracic (T) 7 and T10 levels simultaneously (FIGS. 1A and 1B), similar to the model previously described (Courtine 2008; van den Brand, 2012). The T10 lesion is a lateral hemisection that ends at the spinal cord midline, while the T7 lesion, contralateral to the T10 lesion, extends slightly beyond the midline (FIG. 1A). With this double hemisection procedure, all descending axons passing T10 are severed, leaving only those crossing the midline between T7 and T10 intact (FIG. 1C). Indeed, by immunohistochemistry with anti-5-HT antibodies, which label serotonergic axons, descending serotonergic axons could be detected in the spinal cord segments between the lesions, but not in the lumbar spinal cord (FIG. 1C). Thus, a relay zone remains between and around the lesions (T7 and T10) where descending axons terminate, and where some propriospinal neurons maintain their connections with lumbar spinal neurons (see herein below).
This double hemisection SCI model was used to seek small molecule compounds that could reactivate the spared, but dormant, spinal connections by monitoring hindlimb motor performance during over-ground locomotion. To this end, daily compound treatment was started 1 week after injury and then monitored the BMS scores approximately 24 hours after the previous day's compound treatment on a weekly basis (FIG. 1D). Behavioral outcomes observed at these time points likely reflect sustained effects of the treatment, which are more clinically relevant.
Surgical Procedures. The procedure of T7 and T10 double lateral hemisection was similar to that described elsewhere (Courtine et al., 2008; van den Brand et al., 2012). Briefly, a midline incision was made over the thoracic vertebrae, followed by a T7-10 laminectomy. For the T7 right side over-hemisection, a scalpel and micro-scissors were carefully used to interrupt the bilateral dorsal column at T7, and ensured no sparing of ventral pathways on the contralateral side (FIG. 1A). For the T10 left hemisection, a scalpel and micro-scissors were carefully used to interrupt only the left side of the spinal cord until the midline. The muscle layers were then sutured, and the skin was secured with wound clips. All animals received post hoc histological analysis, and those with spared 5HT axons at the lumbar spinal cord (L2-5) were excluded for behavioral analysis (FIG. 7).
as §1

[4] = tested on: mice with staggered lesions; experiment: Cortical stimulation with EMG responses recorded in the TA muscle; type: in vivo, mouse; conditions: injured mice, compared to controls; FIG. 5D-5F
Procedure: To test directly if the treated spinal cord could more efficiently relay descending inputs to the lumbar spinal cord, cortical stimulation was performed and recorded EMG responses in the TA muscle (FIG. 5D). […] Thus, KCC2 treatment facilitates the transmission of descending inputs from the brain to the lumbar spinal cord.
For epidural stimulation and EMG recording, a customized head plate was secured over the skull, and a monopolar stimulation electrode (SSM33A05, World Precision Instruments, Inc.) was positioned epidurally over the representative hindlimb area of left motor cortex. A train of electrical stimuli (0.2 ms biphasic pulse, 100 ms pulse train, 20 Hz, 0.5-1.5 mA) was generated by pulse generator and isolator (Master 9 and Iso-Flex, A.M.P.I.), and delivered during quadrupedal standing in fully awake condition. Testing was performed without and with electrochemical stimulations. Peak-to-peak amplitude and latency of evoked responses were computed from EMG recordings of the right TA muscle.

[5] = tested on: mice with staggered lesions; experiment: Hindlimb kinematic analysis (MotoRater) and EMG recording of TA and GS muscles during stepping; type: in vivo, mouse
Description: This extent of recovery is functionally significant, as stepping ability has been implicated as the limiting step for functional recovery in severe injury models (Schucht et al., 2002).
EMG Recording and cortical stimulation. The procedure for EMG recording in free moving animals was similar to that described previously (Pearson et al., 2005). In brief, at 9 weeks after surgery, 5 mice from each group (Control, CLP290 and AAV-KCC2 treated mice) underwent implantation of customized bipolar electrodes into selected hindlimb muscles to record EMG activity. Electrodes (793200, A-M Systems) were led by 30 gauge needles and inserted into the mid-belly of the medial gastrocnemius (GS) and tibialis anterior (TA) muscles of the right hindlimb. A common ground wire was inserted subcutaneously in the neck-shoulder area. Wires were routed subcutaneously through the back to a small percutaneous connector securely cemented to the skull of the mouse. EMG signals were acquired using a differential AC amplifier (1700, A-M Systems, WA) with 10-1000 Hz filtration, sampled at 4 kHz using a digitizer (PowerLab 16/35, ADInstruments), and analyzed by LabChart 8 (ADInstruments).
as §1

neuropathic pain = conditions: animal models; Gagnon et al., 2013; Ferrini et al., 2017; Knabl et al., 2008; cited from earlier work

In the case of `O=C1N=C(N2CCCCN2)S/C1=C\c1ccc(F)cc1OC(=O)N1CCCC1` [CLP290, [5-Fluoro-2-[(Z)-(2-hexahydropyridazin-1-yl-4-oxo-thiazol-5-ylidene)methyl]phenyl] pyrrolidine-1-carboxylate], the “functional recovery (BMS), chronic treatment” value [1] was “failed to promote any significant functional recovery”, the side effects [2] was “negligible side effects even at high doses” and the “mice that recovered consistent hindpaw plantar placement and weight-bearing stepping” value ([3]; 9 weeks post staggered injury, FIG. 1F) was 80%. For the same compound, the “additional functional recovery (BMS) from accompanying CLP290 treatment” value ([3]; Vgat-Cre mice with AAV-FLEX-KCC2, CLP290 versus vehicle, FIG. 10E) was “did not significantly enhance functional recovery at most time points”, the “time BMS scores remained significantly higher than controls after stopping treatment” value ([3]; after withdrawal following 10-week treatment, FIG. 1G) was 1-2 weeks and the “stepping ability / functional recovery (BMS), chronic compound treatment” value ([3]; daily i.p. treatment from 1 week after injury, BMS about 24 h after previous dose, FIG. 1E, 7A) was “induced sustained functional recovery”. For the same compound, the “time at which functional recovery (BMS) first appeared” value ([3]; daily i.p. treatment started 1 week after injury, BMS about 24 h after previous dose, FIG. 1E) was 4-5 weeks, the “time from which functional recovery (BMS) became significant” value ([3]; weeks after treatment, daily i.p. treatment, BMS about 24 h after previous dose, FIG. 1E) was 7 weeks and the “amplitude of evoked EMG signals in TA muscle” value [4] was “significantly increased”. For the same compound, the “total hindlimb stride length” value ([5]; 9 weeks post staggered injury, versus vehicle, FIG. 1J) was “significantly increased”, the “TA/GS activation pattern during stepping gait” value ([5]; compared with alternating TA/GS activation in intact mice, FIG. 1K) was “co-activation of TA and GS during the swing phase” and the “oscillation of hindlimb joints” value ([5]; staggered-lesioned mice during stepping, FIGS. 1H-1K) was “significantly increased oscillation of hindlimb joints”. For the same compound, the “bodyweight support during stepping” value ([5]; staggered-lesioned mice, 8-9 weeks after injury) was “could partially support their body weight”, the “EMG activity of tibialis anterior (TA) and gastrocnemius soleus (GS) muscles” value ([5]; staggered-lesioned mice, FIG. 1K, 2H) was “showed both TA and GS activity” and the “effect on neuropathic pain” value (neuropathic pain) was “effectively treat neuropathic pain in animal models”.

— US20210254101A1, “METHODS FOR TREATING SPINAL CORD INJURY” (THE CHILDREN'S MEDICAL CENTER CORPORATION, priority 2018, published 2021)
